Reference: patent US6620818B1, “Method for reducing the severity of side effects of chemotherapy and/or radiation therapy” (priority 2001, dated 2003)

Target: CDK1 (Homo sapiens, UniProt P06493)
Test: Cyclin dependent protein kinase assay, CDK1
Format: biochemical
Settings: inhibitory activity against CDK1, baculovirus-expressed enzyme, [γ-32P]ATP peptide phosphorylation

Sequence of CDK1 (P06493 whole entry, species assumed): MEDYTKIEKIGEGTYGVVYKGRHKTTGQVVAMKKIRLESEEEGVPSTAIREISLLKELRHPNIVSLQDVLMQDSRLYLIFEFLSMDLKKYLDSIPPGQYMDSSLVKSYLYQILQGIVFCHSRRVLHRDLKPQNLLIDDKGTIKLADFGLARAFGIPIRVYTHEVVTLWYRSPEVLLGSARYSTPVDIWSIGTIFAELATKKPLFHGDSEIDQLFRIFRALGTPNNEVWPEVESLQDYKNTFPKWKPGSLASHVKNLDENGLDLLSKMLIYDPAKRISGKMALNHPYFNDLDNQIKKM
Sequence of CDK1 (P14635 whole entry partner, species assumed): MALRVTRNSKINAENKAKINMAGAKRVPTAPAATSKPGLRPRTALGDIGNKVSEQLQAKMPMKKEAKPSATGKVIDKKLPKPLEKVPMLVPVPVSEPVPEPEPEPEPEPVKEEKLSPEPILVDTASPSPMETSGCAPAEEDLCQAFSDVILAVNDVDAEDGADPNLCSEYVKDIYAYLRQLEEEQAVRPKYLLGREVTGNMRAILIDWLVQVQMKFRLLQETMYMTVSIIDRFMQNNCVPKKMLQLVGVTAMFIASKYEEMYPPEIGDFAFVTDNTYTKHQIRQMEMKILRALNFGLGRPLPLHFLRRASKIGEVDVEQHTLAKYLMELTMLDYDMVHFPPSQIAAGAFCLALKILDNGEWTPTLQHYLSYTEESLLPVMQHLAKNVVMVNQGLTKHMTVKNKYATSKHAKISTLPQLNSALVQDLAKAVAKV

SMILES	IC50
CC(C)(CO)CNS(=O)(=O)c1ccc(NC=C2C(=O)Nc3ccc4ncsc4c32)cc1 [Compound A1]	1 to 10 nM
O=C1Nc2ccc3ncsc3c2C1=CNc1ccc(S(=O)(=O)NCc2ccncc2)cc1 [Compound A3]	11 to 50 nM
O=C1Nc2ccc3ncsc3c2C1=CNc1ccc(S(=O)(=O)Nc2ccccn2)cc1 [Compound A2]	51 to 100 nM
